The record followed here is article PMC2651670 (Biochemistry, 2009).

For experiment [1], the target named is complex I (NADH:ubiquinone oxidoreductase), hydrophobic (physiological) Q-site (Bos taurus, UniProt P03887+P17694+P42026). The experiment in a line: NADH:DQ oxidoreduction, NADH absorbance. It is filed as biochemical.
Experiment [2] has as its target subcomplex Iλ (Bos taurus, UniProt P25708). The experiment in a line: NADH:Q1 oxidoreduction. It is filed as biochemical. To be noted: 100 μM NADH, 0.4 mg/mL asolectin, with or without 2.3 μM rotenone, pH 7.55, 32 °C; flavin site.

complex I (NADH:ubiquinone oxidoreductase), hydrophobic (physiological) Q-site, sequence (P03887 whole entry): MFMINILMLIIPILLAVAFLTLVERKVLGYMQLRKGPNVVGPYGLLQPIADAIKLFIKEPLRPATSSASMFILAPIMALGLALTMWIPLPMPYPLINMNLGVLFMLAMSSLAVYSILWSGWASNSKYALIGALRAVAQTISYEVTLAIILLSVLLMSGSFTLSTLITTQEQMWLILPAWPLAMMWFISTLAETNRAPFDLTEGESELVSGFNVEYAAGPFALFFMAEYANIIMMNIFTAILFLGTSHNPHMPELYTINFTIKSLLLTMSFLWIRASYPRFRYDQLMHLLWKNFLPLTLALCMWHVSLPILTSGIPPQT
complex I (NADH:ubiquinone oxidoreductase), hydrophobic (physiological) Q-site, sequence (P17694 34-463): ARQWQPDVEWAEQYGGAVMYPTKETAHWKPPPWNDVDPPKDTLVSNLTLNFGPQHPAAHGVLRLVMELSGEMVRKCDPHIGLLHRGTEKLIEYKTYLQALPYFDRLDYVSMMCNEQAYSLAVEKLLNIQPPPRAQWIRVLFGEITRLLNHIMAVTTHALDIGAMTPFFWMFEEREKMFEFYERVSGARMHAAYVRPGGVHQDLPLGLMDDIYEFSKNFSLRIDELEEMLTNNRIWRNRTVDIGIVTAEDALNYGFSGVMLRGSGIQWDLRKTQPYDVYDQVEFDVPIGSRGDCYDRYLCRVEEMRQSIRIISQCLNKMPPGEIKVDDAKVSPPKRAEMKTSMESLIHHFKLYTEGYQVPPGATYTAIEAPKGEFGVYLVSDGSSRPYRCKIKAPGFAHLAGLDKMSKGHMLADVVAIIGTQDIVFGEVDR
complex I (NADH:ubiquinone oxidoreductase), hydrophobic (physiological) Q-site, sequence (P42026 38-216): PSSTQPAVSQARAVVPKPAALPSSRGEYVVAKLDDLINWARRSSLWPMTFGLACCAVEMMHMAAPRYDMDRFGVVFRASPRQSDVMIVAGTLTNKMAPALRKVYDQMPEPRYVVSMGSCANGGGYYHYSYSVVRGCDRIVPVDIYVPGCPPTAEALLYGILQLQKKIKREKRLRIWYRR
subcomplex Iλ, sequence (P04394 33-249): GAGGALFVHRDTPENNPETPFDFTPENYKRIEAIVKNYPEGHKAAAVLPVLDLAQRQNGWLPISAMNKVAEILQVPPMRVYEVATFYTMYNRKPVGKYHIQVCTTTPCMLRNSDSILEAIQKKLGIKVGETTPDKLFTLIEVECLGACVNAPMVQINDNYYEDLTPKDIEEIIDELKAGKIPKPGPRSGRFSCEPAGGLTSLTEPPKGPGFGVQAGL
subcomplex Iλ, sequence (P25708 21-464): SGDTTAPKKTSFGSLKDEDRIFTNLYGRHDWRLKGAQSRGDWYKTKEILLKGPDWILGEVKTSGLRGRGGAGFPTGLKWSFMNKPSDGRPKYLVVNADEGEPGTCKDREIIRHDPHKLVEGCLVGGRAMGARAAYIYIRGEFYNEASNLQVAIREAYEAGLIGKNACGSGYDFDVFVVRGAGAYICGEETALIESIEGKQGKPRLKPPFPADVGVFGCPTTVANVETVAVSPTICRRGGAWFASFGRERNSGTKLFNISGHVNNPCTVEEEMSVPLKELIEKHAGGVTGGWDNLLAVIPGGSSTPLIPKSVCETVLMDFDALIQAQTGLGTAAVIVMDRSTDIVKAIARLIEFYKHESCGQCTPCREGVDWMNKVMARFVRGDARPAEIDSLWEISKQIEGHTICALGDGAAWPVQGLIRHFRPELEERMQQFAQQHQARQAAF
subcomplex Iλ, sequence (P15690 24-727, further chain): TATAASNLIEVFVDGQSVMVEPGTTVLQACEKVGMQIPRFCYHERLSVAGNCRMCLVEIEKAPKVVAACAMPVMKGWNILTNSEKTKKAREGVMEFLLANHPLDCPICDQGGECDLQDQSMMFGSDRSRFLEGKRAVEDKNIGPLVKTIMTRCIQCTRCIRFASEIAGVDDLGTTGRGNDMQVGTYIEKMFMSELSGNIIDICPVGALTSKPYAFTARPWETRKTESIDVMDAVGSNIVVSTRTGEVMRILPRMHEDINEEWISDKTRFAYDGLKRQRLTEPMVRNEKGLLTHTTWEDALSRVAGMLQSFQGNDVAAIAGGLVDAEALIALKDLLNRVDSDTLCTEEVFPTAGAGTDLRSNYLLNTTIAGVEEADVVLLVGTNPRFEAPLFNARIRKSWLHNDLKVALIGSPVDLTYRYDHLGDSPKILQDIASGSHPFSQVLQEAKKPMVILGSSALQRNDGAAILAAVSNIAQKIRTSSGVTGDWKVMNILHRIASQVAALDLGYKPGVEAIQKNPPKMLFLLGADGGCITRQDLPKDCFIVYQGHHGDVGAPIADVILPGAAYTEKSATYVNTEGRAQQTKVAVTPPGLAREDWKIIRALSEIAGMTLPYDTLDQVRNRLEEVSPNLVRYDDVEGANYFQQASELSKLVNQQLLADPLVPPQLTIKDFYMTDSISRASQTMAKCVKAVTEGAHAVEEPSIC

For orientation: inhibition means the relative decrease from the control value, in per cent. Take `C=C(C)[C@H]1Cc2c(ccc3c2O[C@@H]2COc4cc(OC)c(OC)cc4[C@@H]2C3=O)O1` [rotenone]: the inhibition at 2.3 µM in experiment [1] (read-out: % inhibition at 2.3 μM) was ~95%. In the case of `COC1=C(OC)C(=O)C(CC=C(C)C)=C(C)C1=O` [Q1], in experiment [2], the “NADH:Q1 oxidoreduction” value is “Q1 reduction by subcomplex Iλ is independent of the presence of rotenone”.

Take `C/C=C(\C)[C@H](O)[C@H](C)/C=C(C)/C=C/C/C(C)=C/Cc1nc(OC)c(OC)c(O)c1C` [piericidin A]: the inhibition at 1 µM in experiment [1] (read-out: % inhibition at 1 μM) is ~95%.
